Where two headings read alike, the source gives them in different places.
Assays:
FAAH = FAAH (Mus musculus (Mouse), UniProt O08914); assay: FAAH inhibition ex vivo after systemic administration in mice; settings: mouse, ip
Description: Drug preparation for in vivo experiments Drugs were dissolved in polyethylene glycol 400/Tween-80/saline (1/1/18; by volume) and administered by i.p. (5-10 mL-kg^−1) or s.c. injection (10 mL-kg^−1).

[1] = Drug distribution coefficient n-octanol/buffer pH 7.4; format: physicochemical; settings: n-octanol / aqueous buffer pH 7.4, 25±1° C., mean±sem, n=3; read-out: distribution coefficient, Log Doct,pH7.4
Description: Drug distribution coefficients. We determined Log D7.4,oct values at room temperature (25±1° C.) partitioning the solutes between n-octanol and an aqueous solution buffered at pH 7.4^36.

[2] = test system: formalin-induced nociception; assay: Formalin-induced pain behavior; format: in vivo; settings: rats, 1 mg-kg^-1, i.p.
Description: (§1) Behavioral tests. We measured nocifensive responses elicited by i.p. injection of acetic acid in male Swiss and C57B1/6 (wild-type or FAAH-deficient) mice^40, intraplantar injection of carrageenan in male Swiss mice^20, intraplantar injection of formalin in male Sprague-Dawley rats^41, and sciatic nerve ligation in male Swiss mice^39.
Behavioral tests Acetic acid-induced writhing was measured in Swiss mice or C57B1/6 mice (wild-type and FAAH-deficient), as described^40 with minor modifications. Briefly, the mice were acclimated to the experimental room for 2 h. Each animal was injected with acetic acid (150 μL, 0.6% in saline) and placed into a glass cylinder. Abdominal stretches (extension of body and hind limbs) were counted for 20 min, starting 5 min after acetic acid injection. […] Behavior was scored by an observer blinded to the treatment conditions. Formalin-induced nociception was assessed in Sprague-Dawley rats, as described^41. […] Immediately after formalin injection, the rats were returned to the observation container and nocifensive behavior was recorded for 60 min with a video camera. Recordings were analyzed by observers blinded to treatment conditions. Nocifensive behavior was measured continuously for 60 min^41. […] Each 5-min bin was analyzed for time spent (1) lifting and (2) licking or biting the injected paw. […]

[3] = test system: carrageenan-induced inflammation; assay: Carrageenan-induced hyperalgesia, allodynia and paw edema; format: in vivo, mice; settings: mice, 1 mg-kg^-1, i.p.
Description: as §1
Behavioral tests Acetic acid-induced writhing was measured in Swiss mice or C57B1/6 mice (wild-type and FAAH-deficient), as described^40 with minor modifications. Briefly, the mice were acclimated to the experimental room for 2 h. Each animal was injected with acetic acid (150 μL, 0.6% in saline) and placed into a glass cylinder. Abdominal stretches (extension of body and hind limbs) were counted for 20 min, starting 5 min after acetic acid injection. […] Behavior was scored by an observer blinded to the treatment conditions. Formalin-induced nociception was assessed in Sprague-Dawley rats, as described^41. The rats were singly housed and kept in a shared holding room under a 12:12 h light:dark cycle. They were given free access to food and water, and allowed to acclimate to the facility for a week before testing. […] They were acclimated to the observation container (clear plexiglas box, 29×29×25 cm) for 15 min before receiving an injection of formalin (50 μL, 5% in saline) into the dorsal surface of the right hind paw. Immediately after formalin injection, the rats were returned to the observation container and nocifensive behavior was recorded for 60 min with a video camera. Recordings were analyzed by observers blinded to treatment conditions. Nocifensive behavior was measured continuously for 60 min^41. […] Each 5-min bin was analyzed for time spent (1) lifting and (2) licking or biting the injected paw. Nocifensive behavior was analyzed using the composite pain score weighted scores technique (CPS-WST1,2) calculated for the entire time of observation (0-60 min) and, separately, for the first (0-10 min) and second phase (10-60 min) of the behavioral response^46. The area under the curve (AUC) corresponding to CPS-WST1,2 was calculated using the trapezoidal rule. Paw edema was induced in mice by injection into the right hind paws of 50 μL of sterile saline containing 1% λ-carrageenan. Paw volumes were measured using a plethysmometer (Ugo Basile, Milan, Italy). […] Rimonabant and AM630 (1 mg kg^−1, i.p.) were injected 30 min before carrageenan. Mechanical hyperalgesia was assessed by measuring the latency(s) to withdraw the paw from a constant mechanical pressure exerted onto its dorsal surface. A 15-g calibrated glass cylindrical rod (diameter=10 mm) chamfered to a conical point (diameter=3 mm) was used to exert the mechanical force. The weight was suspended vertically between two rings attached to a stand and was free to move vertically. A cutoff time of 3 min was used. Thermal hyperalgesia was assessed as described^47, measuring the latency to withdraw the hind paw from a focused beam of radiant heat (thermal intensity: infrared 3.0) applied to the plantar surface, using a commercial apparatus (Ugo Basile, Varese, Italy). The cutoff time was set at 30 s. Mechanical allodynia was assessed by applying a graded force to the plantar hind paw surface with a Von Frey filament, using a Dynamic Plantar Anesthesiometer (Ugo Basile). The cutoff force was set at 50 g.

FAAH, sequence (O08914 whole entry): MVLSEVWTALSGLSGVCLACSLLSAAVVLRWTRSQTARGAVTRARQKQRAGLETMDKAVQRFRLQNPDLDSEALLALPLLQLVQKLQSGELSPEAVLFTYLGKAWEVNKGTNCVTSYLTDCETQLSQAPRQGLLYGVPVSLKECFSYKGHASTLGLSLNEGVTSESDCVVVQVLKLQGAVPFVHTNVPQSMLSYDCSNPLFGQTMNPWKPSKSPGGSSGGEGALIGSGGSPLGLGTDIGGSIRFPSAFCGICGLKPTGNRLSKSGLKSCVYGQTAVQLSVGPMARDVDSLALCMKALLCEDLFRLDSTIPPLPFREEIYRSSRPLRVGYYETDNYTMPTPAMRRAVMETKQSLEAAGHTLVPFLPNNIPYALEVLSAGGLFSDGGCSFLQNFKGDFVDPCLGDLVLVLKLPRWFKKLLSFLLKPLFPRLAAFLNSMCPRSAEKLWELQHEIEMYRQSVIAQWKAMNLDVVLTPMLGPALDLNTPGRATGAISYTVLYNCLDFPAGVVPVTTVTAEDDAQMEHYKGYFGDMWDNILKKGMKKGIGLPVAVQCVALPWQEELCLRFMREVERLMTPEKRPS

## NC(=O)c1cccc(-c2cc(OC(=O)NC3CCCCC3)ccc2O)c1 [Compound 1b, cyclohexylcarbamic acid 3′-carbamoyl-6-hydroxybiphenyl-3-yl ester]
FAAH; Mice, 1 mg/Kg i.p., Colon, read-out: % of FAAH inhibition, Colon
  inhibition at 1 mg/kg: 84.7 ± 0.3%
FAAH; Mice, 1 mg/Kg i.p., Duodenum, read-out: % of FAAH inhibition, Duodenum
  inhibition at 1 mg/kg: 84.3 ± 1.4%
FAAH; Mice, 1 mg/Kg i.p., Hypothalamus, read-out: % of FAAH inhibition, Hypothalamus
  inhibition at 1 mg/kg: 18.4 ± 13.8%
FAAH; Mice, 1 mg/Kg i.p., Illeum, read-out: % of FAAH inhibition, Illeum
  inhibition at 1 mg/kg: 86.8 ± 2.4%
FAAH; Mice, 1 mg/Kg i.p., Jejunum, read-out: % of FAAH inhibition, Jejunum
  inhibition at 1 mg/kg: 90 ± 1.4%
FAAH; Mice, 1 mg/Kg i.p., Kidney, read-out: % of FAAH inhibition, Kidney
  inhibition at 1 mg/kg: 88.3 ± 1%
FAAH; Mice, 1 mg/Kg i.p., Liver, read-out: % of FAAH inhibition, Liver
  inhibition at 1 mg/kg: 91.7 ± 0.7%
FAAH; Mice, 1 mg/Kg i.p., Spinal cord, read-out: % of FAAH inhibition, Spinal cord
  inhibition at 1 mg/kg: 17.7 ± 10.6%
FAAH; Mice, 1 mg/Kg i.p., Spleen, read-out: % of FAAH inhibition, Spleen
  inhibition at 1 mg/kg: 72.5 ± 0.7%
FAAH; ex vivo 1 h after a single injection in mice (1 mg-kg^-1, i.p.), brain, read-out: FAAH Inhibition in brain (%)
  inhibition at 1 mg/kg: -3 ± 8%
[1]
  logD: 3.03 ± 0.01
[2]
  area under the curve of formalin-induced pain behavior: decreased the area under the curve
[3]; 4 h after carrageenan
  carrageenan-induced paw edema, 4 h: did not affect paw edema
[3]; 4 h and 24 h following carrageenan
  carrageenan-induced mechanical and thermal hyperalgesia: significant decrease
[3]; 24 h after carrageenan
  carrageenan-induced mechanical allodynia: suppressed mechanical allodynia
  carrageenan-induced paw edema, 24 h: reversed it
